From patent US9650379B2 (CHONG KUN DANG PHARMACEUTICAL CORP., priority 2013, dated 2017)

Tests used:
HDAC1 = biological target: T1, HDAC1 (Homo sapiens, UniProt Q13547); assay: Inhibition of HDAC1 activity (HDAC1 fluorimetric drug discovery assay kit); type: biochemical; conditions: test concentrations 100, 1000 and 10000 nM; 37° C., 60 minutes
T1 construct: purchased Enzolifesciences BML-AK511
How it was run: (§1)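 HDAC1 tested with the kit assay mixture at 100, 1000 and 10000 nM compound; recombinant human HDAC6 at 0.1, 1, 10, 100 and 1000 nM. Reaction ran 60 min at 37° C, then developer was added for 30 min at 37° C and fluorescence quantified.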

HDAC6 human recombinant = biological target: T2, HDAC6 human recombinant (Homo sapiens, UniProt Q9UBN7); assay: Inhibition of HDAC6 activity (fluorimetric assay); type: biochemical; conditions: test concentrations 0.1, 1, 10, 100 and 1000 nM; 37° C., 60 minutes
T2 construct: purchased Calbiochem 382180
T2 sequence (Q9UBN7 1-1215): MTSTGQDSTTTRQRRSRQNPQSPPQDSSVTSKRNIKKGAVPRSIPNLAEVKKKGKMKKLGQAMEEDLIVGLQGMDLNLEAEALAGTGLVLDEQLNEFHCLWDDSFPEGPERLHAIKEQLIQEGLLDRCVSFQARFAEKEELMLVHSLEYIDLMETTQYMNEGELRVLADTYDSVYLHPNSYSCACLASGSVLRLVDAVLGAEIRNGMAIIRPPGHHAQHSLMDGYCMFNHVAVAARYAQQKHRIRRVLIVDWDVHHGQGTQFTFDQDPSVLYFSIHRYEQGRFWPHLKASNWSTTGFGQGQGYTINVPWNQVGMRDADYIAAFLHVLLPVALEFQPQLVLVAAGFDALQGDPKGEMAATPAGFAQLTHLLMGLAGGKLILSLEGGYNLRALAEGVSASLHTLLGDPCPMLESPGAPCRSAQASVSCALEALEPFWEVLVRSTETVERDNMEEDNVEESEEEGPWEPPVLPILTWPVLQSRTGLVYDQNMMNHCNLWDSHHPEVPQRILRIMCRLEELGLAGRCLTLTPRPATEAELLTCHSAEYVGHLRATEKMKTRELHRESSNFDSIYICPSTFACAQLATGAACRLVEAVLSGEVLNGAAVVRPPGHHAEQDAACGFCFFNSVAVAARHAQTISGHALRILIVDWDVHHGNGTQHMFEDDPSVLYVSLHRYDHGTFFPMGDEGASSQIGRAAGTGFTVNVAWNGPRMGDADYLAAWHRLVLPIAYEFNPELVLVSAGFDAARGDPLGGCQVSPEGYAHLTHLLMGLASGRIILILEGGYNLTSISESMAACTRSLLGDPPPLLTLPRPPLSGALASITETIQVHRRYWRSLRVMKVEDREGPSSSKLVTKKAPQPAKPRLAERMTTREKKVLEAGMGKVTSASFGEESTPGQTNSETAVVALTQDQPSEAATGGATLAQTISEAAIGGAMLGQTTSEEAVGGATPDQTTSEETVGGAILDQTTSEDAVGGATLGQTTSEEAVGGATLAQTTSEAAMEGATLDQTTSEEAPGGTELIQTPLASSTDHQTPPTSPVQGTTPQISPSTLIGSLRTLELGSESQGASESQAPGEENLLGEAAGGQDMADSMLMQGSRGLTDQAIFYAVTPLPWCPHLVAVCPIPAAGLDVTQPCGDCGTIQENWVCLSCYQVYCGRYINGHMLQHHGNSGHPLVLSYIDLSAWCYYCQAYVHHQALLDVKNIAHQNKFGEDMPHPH
How it was run: as §1

T1 sequence (Q13547 whole entry): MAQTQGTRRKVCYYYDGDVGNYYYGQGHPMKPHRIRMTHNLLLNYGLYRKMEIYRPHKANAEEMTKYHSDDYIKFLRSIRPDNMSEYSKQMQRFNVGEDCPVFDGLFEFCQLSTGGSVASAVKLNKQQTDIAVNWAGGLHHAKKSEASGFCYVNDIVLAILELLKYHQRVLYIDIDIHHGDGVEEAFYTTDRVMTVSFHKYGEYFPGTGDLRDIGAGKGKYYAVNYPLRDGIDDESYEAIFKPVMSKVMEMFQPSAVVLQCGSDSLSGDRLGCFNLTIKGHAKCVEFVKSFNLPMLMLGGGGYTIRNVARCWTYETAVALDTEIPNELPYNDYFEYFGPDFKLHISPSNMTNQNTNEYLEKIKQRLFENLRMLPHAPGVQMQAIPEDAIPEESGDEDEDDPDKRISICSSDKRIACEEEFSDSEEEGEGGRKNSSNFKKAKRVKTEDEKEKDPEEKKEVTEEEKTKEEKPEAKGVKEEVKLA

Row | IC50 (HDAC1) | IC50 (HDAC6 human recombinant) | Structure (SMILES)
1 | 1050 nM | 7.6 nM | CN1CCN(Cc2cccc(CN3CCC(c4cnc5c(ccn5Cc5ccc(C(=O)NO)cc5)c4)CC3)c2)CC1 [Compound 879, N-hydroxy-4-((5-(1-(3-((4-methylpiperazin-1-yl)methyl)benzyl)piperidin-4-yl)-1H-pyrrolo[2,3-b]pyridin-1-yl)methyl)benzamide]
2 | 3230 nM | 61 nM | O=C(NO)c1ccc(Cn2ccc3cc(-c4cnc(O)nc4)cnc32)cc1 [Compound 687, N-hydroxy-4-((5-(2-hydroxypyrimidin-5-yl)-1H-pyrrolo[2,3-b]pyridin-1-yl)methyl)benzamide]
3 | 780 nM | 10 nM | O=C(NO)c1ccc(Cn2ccc3c(-c4ccc(CN5CCOCC5)cc4)ccnc32)cc1 [Compound 762, N-hydroxy-4-((4-(4-(morpholinomethyl)phenyl)-1H-pyrrolo[2,3-b]pyridin-1-yl)methyl)benzamide]
4 | 1530 nM | 23 nM | O=C(NO)c1ccc(Cn2ccc3c(N4CCN(c5cnc(C(F)(F)F)cn5)CC4)ccnc32)cc1 [Compound 701, N-hydroxy-4-((4-(4-(5-(trifluoromethyl)pyrazin-2-yl)piperazin-1-yl)-1H-pyrrolo[2,3-b]pyridin-1-yl)methyl)benzamide]
5 | 680 nM | 6.7 nM | O=C(NO)c1ccc(Cn2ccc3cc(N4CCN(Cc5ccccc5)CC4)cnc32)cc1 [Compound 806, 4-((5-(4-benzylpiperazin-1-yl)-1H-pyrrolo[2,3-b]pyridin-1-yl)methyl)-N-hydroxybenzamide]
6 | 60 nM | 3.6 nM | CC(C)(F)C(=O)N1CCC(c2ccnc3c2ccn3Cc2ccc(C(=O)NO)cc2)CC1 [Compound 858, 4-((4-(1-(2-fluoro-2-methylpropanoyl)piperidin-4-yl)-1H-pyrrolo[2,3-b]pyridin-1-yl)methyl)-N-hydroxybenzamide]
7 | 1200 nM | 12 nM | CC(C)(O)CN1CCC(c2cnc3c(ccn3Cc3ccc(C(=O)NO)cc3)c2)CC1 [Compound 714, N-hydroxy-4-((5-(1-(2-hydroxy-2-methylpropyl)piperidin-4-yl)-1H-pyrrolo[2,3-b]pyridin-1-yl)methyl)benzamide]
8 | 510 nM | 2.3 nM | O=C(NO)c1ccc(Cn2ccc3c(C4CCN(Cc5cccc(CN6CCOCC6)c5)CC4)ccnc32)cc1 [Compound 985, N-hydroxy-4-((4-(1-(3-(morpholinomethyl)benzyl)piperidin-4-yl)-1H-pyrrolo[2,3-b]pyridin-1-yl)methyl)benzamide]
9 | 1120 nM | 6.4 nM | O=C(NO)c1ccc(Cn2ccc3cc(C4CCN(Cc5cccc(CN6CCOCC6)c5)CC4)cnc32)cc1 [Compound 878, N-hydroxy-4-((5-(1-(3-(morpholinomethyl)benzyl)piperidin-4-yl)-1H-pyrrolo[2,3-b]pyridin-1-yl)methyl)benzamide]
10 | 1360 nM | 4.6 nM | C[C@@H]1CN(c2ccnc3c2ccn3Cc2ccc(C(=O)NO)cc2)C[C@H](C)N1Cc1ccccc1 [Compound 990, 4-((4-((3S,5R)-4-benzyl-3,5-dimethylpiperazin-1-yl)-1H-pyrrolo[2,3-b]pyridin-1-yl)methyl)-N-hydroxybenzamide]
11 | 290 nM | 5.9 nM | CN1CCN(Cc2ccc(CN3CCC(c4ccnc5c4ccn5Cc4ccc(C(=O)NO)cc4)CC3)cc2)CC1 [Compound 988, N-hydroxy-4-((4-(1-(4-((4-methylpiperazin-1-yl)methyl)benzyl)piperidin-4-yl)-1H-pyrrolo[2,3-b]pyridin-1-yl)methyl)benzamide]
12 | 620 nM | 5.7 nM | CC(C)(C)OC(=O)N1CC=C(c2cnc3ccn(Cc4ccc(C(=O)NO)cc4)c3c2)CC1 [Compound 786, tert-butyl 4-(1-(4-(hydroxycarbamoyl)benzyl)-1H-pyrrolo[3,2-b]pyridin-6-yl)-5,6-dihydropyridine-1(2H)-carboxylate]
13 | 2800 nM | 42 nM | O=C(NO)c1ccc(Cn2ccc3cc(C4CCN(S(=O)(=O)c5ccccc5)CC4)cnc32)cc1 [Compound 876, N-hydroxy-4-((5-(1-(phenylsulfonyl)piperidin-4-yl)-1H-pyrrolo[2,3-b]pyridin-1-yl)methyl)benzamide]
14 | 900 nM | 4 nM | O=C(NO)c1ccc(Cn2ccc3c(-c4cncnc4)ccnc32)cc1 [Compound 659, N-hydroxy-4-((4-(pyrimidin-5-yl)-1H-pyrrolo[2,3-b]pyridin-1-yl)methyl)benzamide]
15 | 1120 nM | 11 nM | COc1ccc(CN2CCN(c3ccnc4c3ccn4Cc3ccc(C(=O)NO)cc3)CC2)cc1 [Compound 705, N-hydroxy-4-((4-(4-(4-methoxybenzyl)piperazin-1-yl)-1H-pyrrolo[2,3-b]pyridin-1-yl)methyl)-benzamide]
16 | 800 nM | 8.6 nM | CN1CCN(Cc2cccc(C(=O)N3CCC(c4cnc5c(ccn5Cc5ccc(C(=O)NO)cc5)c4)CC3)c2)CC1 [Compound 896, N-hydroxy-4-((5-(1-(3-((4-methylpiperazin-1-yl)methyl)benzoyl)piperidin-4-yl)-1H-pyrrolo[2,3-b]pyridin-1-yl)methyl)benzamide]
17 | 250 nM | 3.5 nM | CC(C)(F)C(=O)N1CCN(c2cnc3c(ccn3Cc3ccc(C(=O)NO)cc3)c2)CC1 [Compound 855, 4-((5-(4-(2-fluoro-2-methylpropanoyl)piperazin-1-yl)-1H-pyrrolo[2,3-b]pyridin-1-yl)methyl)-N-hydroxybenzamide]
18 | 670 nM | 8.5 nM | O=C(NO)c1ccc(Cn2ccc3c(C4CCN(Cc5cccnc5)CC4)ccnc32)cc1 [Compound 1014, N-hydroxy-4-((4-(1-(pyridin-3-ylmethyl)piperidin-4-yl)-1H-pyrrolo[2,3-b]pyridin-1-yl)methyl)benzamide]
19 | 1120 nM | 11.5 nM | CC(C)CN1CCC(c2cnc3c(ccn3Cc3ccc(C(=O)NO)cc3)c2)CC1 [Compound 863, N-hydroxy-4-((5-(1-isobutylpiperidin-4-yl)-1H-pyrrolo[2,3-b]pyridin-1-yl)methyl)benzamide]
20 | 80 nM | 2.3 nM | CC(C)(F)C(=O)N1CCN(c2ccnc3c2ccn3Cc2ccc(C(=O)NO)cc2)CC1 [Compound 856, 4-((4-(4-(2-fluoro-2-methylpropanoyl)piperazin-1-yl)-1H-pyrrolo[2,3-b]pyridin-1-yl)methyl)-N-hydroxybenzamide]
21 | 220 nM | 6 nM | CC(C)(O)CN1C2CCC1CN(c1ccnc3c1ccn3Cc1ccc(C(=O)NO)cc1)C2 [Compound 1017, N-hydroxy-4-((4-(8-(2-hydroxy-2-methylpropyl)-3,8-diazabicyclo[3.2.1]octan-3-yl)-1H-pyrrolo[2,3-b]pyridin-1-yl)methyl)benzamide]
22 | 220 nM | 4.4 nM | O=C(NO)c1ccc(Cn2ccc3c(N4CCN(Cc5ccncc5)CC4)ccnc32)cc1 [Compound 850, N-hydroxy-4-((4-(4-(pyridin-4-ylmethyl)piperazin-1-yl)-1H-pyrrolo[2,3-b]pyridin-1-yl)methyl)benzamide]
23 | 890 nM | 14 nM | CC(C)(C)OC(=O)N1CCN(c2ccnc3c2ccn3Cc2ccc(C(=O)NO)cc2)CC1 [Compound 212]
24 | 540 nM | 8 nM | O=C(NO)c1ccc(Cn2ccc3cc(C4CCNCC4)cnc32)cc1 [Compound 715, N-hydroxy-4-((5-(piperidin-4-yl)-1H-pyrrolo[2,3-b]pyridin-1-yl)methyl)benzamide]
25 | 5170 nM | 28 nM | CC(C)(C)OC(=O)N1CCC(c2cnc3c(ccn3Cc3ccc(C(=O)NO)cc3)c2)CC1 [Compound 694, tert-butyl 4-(1-(4-(hydroxycarbamoyl)benzyl)-1H-pyrrolo[2,3-b]pyridin-5-yl)piperidine-1-carboxylate]
26 | 760 nM | 16.5 nM | O=C(NO)c1ccc(Cn2ccc3cc(C4CCN(Cc5ccc(-n6ccnc6)cc5)CC4)cnc32)cc1 [Compound 873, 4-((5-(1-(4-(1H-imidazol-1-yl)benzyl)piperidin-4-yl)-1H-pyrrolo[2,3-b]pyridin-1-yl)methyl)-N-hydroxybenzamide]
